This note sets out measurements from patent publication US20120263784A1, “EMERGENCY CONTRACEPTIVE” (LYKA LABS LIMITED, priority 2009, published 2012).

The nature of series [1]: in vivo. Conditions: rat, po. The protocol: Similarly, 10-μg of LN suspension was administered orally. Blood samples were collected at specific time points and plasma LN concentrations were estimated. The drug plasma concentration at each sampling time points were plotted against time in hr.
Various pharmacokinetic parameters (Cmax, Tmax and t1/2) were determined from drug plasma concentration-time curve. The area under the plasma level curve was calculated by the trapezoidal rule.

Series [2] is described as follows: in vivo. The settings on record: rat, po, 10 ug. On the procedure: Size of the drug particles and liposomes in all the formulations was kept between 10-15 μm, as the particles with 10-20 μm are all deposited in the nasal cavity, whereas particles smaller than 1 μm pass with inspired air into the lungs.
Suspension containing 10-μg levonorgestrel was administered intranasally in three different group of rats.
Blood samples were collected at specific time points and plasma levonorgestrel concentrations were estimated. The drug plasma concentration at each sampling time point were plotted against time in hr.
The mucociliary clearance under normal conditions rapidly clears the applied material since there is a little time of contact between the drug and the mucosa. […] CS acts by opening tight junction between epithelial cells.

For orientation: Cmax means the maximum level reached in the sampled fluid or tissue. A word on the half-life: it is the time needed for the level to fall by half in the phase considered. Higher therefore signals slow decline. The Tmax is the time from dosing to the highest level. In series [1], `C#C[C@]1(O)CC[C@H]2[C@@H]3CCC4=CC(=O)CC[C@@H]4[C@H]3CC[C@@]21CC` [levonorgestrel] had a maximum concentration (Cmax) of 14.4 ng/mL and a half-life of 16.9 h. Further, in series [2], the Cmax was found to be 14.4 ng/mL, the Tmax was found to be 2.1 h and the half-life was 16.9 h.
